Data set [1] is described as follows: Colour change in iron-fortified bouillon (CIELAB ΔEab*). The format is physicochemical. To be noted: chicken bouillon containing curcumin, approx. 5.5 mg iron per 6.55 g powder, reconstituted in 250 mL boiling water, 60° C. min. 30 minutes; vs bouillon with no iron. As for the experimental part: Commercial Maggi Chicken Bouillon (Nestle Nigeria) containing curcumin was iron fortified by the addition of iron (III) complexes from Example 1, as well as ferrous sulphate (Dr. P. Lohmann GmbH KG) Ref1, and […] (Dr. P. Lohmann GmbH KG) Ref2. The amounts were chosen to provide approximately 5.5 mg of iron per 6.55 g of bouillon powder. A further sample without iron fortification was also prepared in the same manner. All samples were reconstituted in 250 mL of boiling water and kept at 60° C. for a minimum of 30 minutes.
Colour measurements were performed in 2.6×1 cm quartz cuvettes using an XRite ColorEye 7000A colorimeter. The colorimeter was set up with a D65 light source, 10 degree observer angle, specular component included and Large area View (LAV). The colour difference between the beverage with no iron salt and the iron-fortified beverages was measured for each material and expressed as ΔEab* using the CIELAB colour scale (Table 2).

Data set [2] in a line: Human stable-isotope iron bioavailability study (erythrocyte incorporation). Type of data set: in vivo. To be noted: healthy adult women. On the procedure: Clinical trials were performed on fortified chicken bouillon and fortified chicken bouillon with corn flour to simulate inhibitory conditions. The trial was performed by ETH Zurich (Switzerland). The study was a controlled, single blind, single centre, and randomized cross-over trial in 22 healthy adult women, with each woman serving as their own control. Each participant consumed 6 different types of investigational products: bouillon respectively bouillon with maize porridge fortified either with PA:^58Fe:HCP, ^54FeSO4, (Ref1-labelled) or ^57FePP (Ref2-labelled). The PA:^58Fe:HCP complex was prepared as Example 1 sample 9 apart from the use of ^58Fe. The order of test meal administration was randomly assigned. […]
Fractional iron absorption (FIA) was calculated based on the measured shift of iron isotope ratios in the blood 14 days after the test meal administrations, from the blood samples collected on days 1, 17 and 35. […] The amounts of ^54Fe, ^57Fe and ^58Fe in the blood were calculated on the principle of isotope dilution by considering that iron isotopic labels are not mono-isotopic. Circulating iron was calculated based on blood volume and hemoglobin concentration. Blood volume was indirectly measured based on height and weight and calculated using the formula proposed by Brown et al [E. Brown et al., The Journal of clinical investigation, 41:21, 82-90.(1962)]. […]

Take `O=S(=O)([O-])[O-].[Fe+2]` [Ref1, ferrous sulphate]: the “Δ E” value in data set [1] amounted to 15.2.
As for `O=S(=O)([O-])[O-].[54Fe+2]` [^54FeSO4], the fractional iron absorption in data set [2] (in bouillon plus maize meal rich in phytate) came to 3.6%; in data set [2] (in bouillon) it was 24.6%.

These data come from patent publication US11590163B2, “Iron-fortified food composition” (SOCIETE DES PRODUITS NESTLE S.A., priority 2017, dated 2023).
